Values after ≈ are worked out from the molar mass of the structure shown. Read-outs that look alike come from different tables or passages of the source.
Key:
[1] = target: T1, beta-catenin/TCF4 engagement (Homo sapiens, UniProt P35222); assay: Nano-BRET target engagement assay (B-cat-Halo & TCF4-Luc in HEK293 cells); assay type: cell-based
T1 construct: expressed in transfected cells; host or cells: HEK293
T1 sequence (P35222 1-781): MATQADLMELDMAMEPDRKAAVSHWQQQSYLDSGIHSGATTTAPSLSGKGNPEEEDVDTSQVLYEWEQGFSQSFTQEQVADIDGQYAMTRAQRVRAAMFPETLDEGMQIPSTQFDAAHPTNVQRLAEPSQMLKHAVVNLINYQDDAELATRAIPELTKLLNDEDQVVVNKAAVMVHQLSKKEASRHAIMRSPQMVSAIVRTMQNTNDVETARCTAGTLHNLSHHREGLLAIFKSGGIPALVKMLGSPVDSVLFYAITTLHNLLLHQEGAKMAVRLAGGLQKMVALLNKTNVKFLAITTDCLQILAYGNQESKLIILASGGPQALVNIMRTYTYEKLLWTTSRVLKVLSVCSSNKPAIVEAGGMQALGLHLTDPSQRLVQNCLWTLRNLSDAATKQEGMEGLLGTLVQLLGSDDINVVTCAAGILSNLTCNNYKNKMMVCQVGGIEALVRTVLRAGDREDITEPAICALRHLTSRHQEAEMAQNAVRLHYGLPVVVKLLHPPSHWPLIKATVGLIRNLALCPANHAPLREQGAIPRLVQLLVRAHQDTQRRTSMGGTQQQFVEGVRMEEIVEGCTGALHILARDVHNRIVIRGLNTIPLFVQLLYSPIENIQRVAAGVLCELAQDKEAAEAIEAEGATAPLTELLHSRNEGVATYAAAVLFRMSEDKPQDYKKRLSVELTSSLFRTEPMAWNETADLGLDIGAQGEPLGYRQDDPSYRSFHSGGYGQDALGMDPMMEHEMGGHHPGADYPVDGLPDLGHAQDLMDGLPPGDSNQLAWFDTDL

Solubility in PBS = assay type: physicochemical
Outline: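 Steps: ultracentrifuge the peptide PBS solution, inject the supernatant on HPLC, inject a 50 μM peptide DMSO solution as reference, then calculate solubility as area ratio (PBS/DMSO) × 50 uM.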

[2] = target: T2, full-length beta-Catenin (Uniprot ID P35222) (Homo sapiens, UniProt P35222); assay: Fluorescence polarization IC50 (beta-catenin / 5FAM-TCF4 10-53 competition); assay type: binding
T2 construct: 10 nM full-length beta-Catenin (Uniprot ID P35222)
T2 sequence (P35222 1-781): T1 sequence (P35222 1-781)

CHI Log D procedure = assay type: physicochemical; conditions: for chromatographic logD: pH 7.4, CHI Log D; for CHI Log D: pH 7.4
[3] = absolute IC50, read-out: NanoBRET Abs IC50
[4] = fluorescence polarization, read-out: beta-Catenin FP IC50

Row | Compound | IC50 ([1]; read-out: NanoBRET Abs IC50) [nM] | Solubility (Solubility in PBS; Solubility (uM)) [µM] | IC50 ([2]; fluorescence polarization, beta-catenin, read-out: FP EC50) [nM] | IC50 ([2]; read-out: beta-Catenin FP IC50) [nM] | chromatographic logD (CHI Log D procedure) | IC50 [1, 3] [nM] | Solubility (Solubility in PBS) [µM] | IC50 [2, 4] [nM] | IC50 ([2]; read-out: FP EC50) [nM] | CHI Log D (CHI Log D procedure) | IC50 ([1]; read-out: NanoBRET IC50) [nM] | inhibition at 10 µM ([1]; HEK293, 10 uM, read-out: NanoBRET % inh @ 10 uM) [%]
1 | CC(=O)N1CCC[C@]12CC=CCCCC1(CCCC=CCCCCCC[C@@](C)(C(=O)N[C@@H](Cc3ccsc3)C(=O)N[C@@H](Cc3csc4ccccc34)C(=O)N[C@@H](CCC(N)=O)C(N)=O)NC(=O)[C@H](CC(N)=O)NC(=O)[C@H](Cc3ccccc3)NC(=O)[C@H](C)NC(=O)[C@H](C)NC(=O)[C@H](CC(=O)O)NC(=O)[C@H](CC(=O)O)NC1=O)NC(=O)[C@H](CC(C)C)NC(=O)[C@H](CC(=O)O)NC2=O (stereo partly drawn) [I-680, Ac-PL3-Asp-Leu-B5-Asp-Asp-Ala-Ala-Phe-Asn-S8-3Thi-BztA-Gln-NH2] |  |  |  |  |  | 34400 | 47 (≈ 87.5 µg/mL) | 32 | 32 | 2.215 |  | 
2 | CC(=O)N1CCC[C@]12CC=CCCCC1(CCCC=CCCCCCC[C@@](C)(C(=O)N[C@@H](Cc3ccccc3)C(=O)N[C@@H](Cc3csc4ccccc34)C(=O)N[C@@H](CCC(N)=O)C(N)=O)NC(=O)[C@H](CC(N)=O)NC(=O)[C@H](Cc3ccccc3)NC(=O)[C@H](C)NC(=O)[C@H](C)NC(=O)[C@H](CCC(=O)O)NC(=O)[C@H](CC(=O)O)NC1=O)NC(=O)[C@H](CC1CCCCC1)NC(=O)[C@H](CC(=O)O)NC2=O (stereo partly drawn) [I-620, Ac-PL3-Asp-Cha-B5-Asp-Glu-Ala-Ala-Phe-Asn-S8-Phe-BztA-Gln-NH2] |  |  |  |  |  | 12000 | 48 (≈ 91.6 µg/mL) | 35 | 35 | 2.688 | 5800 | 
3 | CC(=O)N1CCC[C@]12CC=CCCCC1(CCCC=CCCCOC(=O)N3CC[C@@](C(=O)N[C@@H](Cc4ccsc4)C(=O)N[C@@H](Cc4csc5ccccc45)C(=O)N[C@@H](CCC(N)=O)C(N)=O)(C3)NC(=O)[C@H](CC(N)=O)NC(=O)[C@H](Cc3ccccc3)NC(=O)[C@H](C)NC(=O)[C@H](C)NC(=O)[C@H](CC(=O)O)NC(=O)[C@H](CC(=O)O)NC1=O)NC(=O)[C@H](CC(C)C)NC(=O)[C@H](CC(=O)O)NC2=O (stereo partly drawn) [I-689, Ac-PL3-Asp-Leu-B5-Asp-Asp-Ala-Ala-Phe-Asn-PyrS2-3Thi-BztA-Gln-NH2] |  |  |  |  |  | 33900 | 50 (≈ 95.2 µg/mL) | 11 | 11 | 1.957 |  | 
4 | CC(=O)N1CCC[C@]12CC=CCCCC1(CCCC=CCCCCCC[C@@](C)(C(=O)N[C@@H](Cc3ccccc3)C(=O)N[C@@H](Cc3csc4ccccc34)C(=O)N[C@@H](CCC(N)=O)C(N)=O)NC(=O)[C@H](CC(N)=O)NC(=O)[C@H](Cc3ccccc3)NC(=O)[C@H](C)NC(=O)[C@H](C)NC(=O)[C@H](CCC(=O)O)NC(=O)[C@H](CC(=O)O)NC1=O)NC(=O)[C@H](CC(C)C)NC(=O)[C@H](CC(=O)O)NC2=O (stereo partly drawn) [I-576, Ac-PL3-Asp-Leu-B5-Asp-Glu-Ala-Ala-Phe-Asn-S8-Phe-BztA-Gln-NH2] |  |  |  |  |  | 11100 | 46 (≈ 86 µg/mL) | 23 | 23 | 2.348 |  | 

More lines, now with the values ahead:

Row | IC50 ([1]; read-out: NanoBRET Abs IC50) [nM] | Solubility (Solubility in PBS; Solubility (uM)) [µM] | IC50 ([2]; fluorescence polarization, beta-catenin, read-out: FP EC50) [nM] | IC50 ([2]; read-out: beta-Catenin FP IC50) [nM] | chromatographic logD (CHI Log D procedure) | IC50 [1, 3] [nM] | Solubility (Solubility in PBS) [µM] | IC50 [2, 4] [nM] | IC50 ([2]; read-out: FP EC50) [nM] | CHI Log D (CHI Log D procedure) | IC50 ([1]; read-out: NanoBRET IC50) [nM] | inhibition at 10 µM ([1]; HEK293, 10 uM, read-out: NanoBRET % inh @ 10 uM) [%] | Compound
5 | 10500 | 35 (≈ 66.9 µg/mL) | 723 | 10 | 1.39 |  |  |  |  |  |  |  | CC(=O)N1CCC[C@]12CC=CCCCC1(CCCC=CCCCOC(=O)N3CC[C@@](C(=O)N[C@@H](Cc4ccccc4)C(=O)N[C@@H](Cc4csc5ccccc45)C(=O)N[C@@H](CCC(N)=O)C(N)=O)(C3)NC(=O)[C@H](CC(C)C)NC(=O)[C@H](Cc3ccccc3)NC(=O)[C@H](C)NC(=O)[C@H](C)NC(=O)[C@H](CC(=O)O)NC(=O)[C@H](CC(=O)O)NC1=O)NC(=O)[C@H](CC(C)(C)C)NC(=O)[C@H](CC(=O)O)NC2=O (stereo partly drawn) [I-1072, Ac-PL3-Asp-Npg-B5-Asp-Asp-Ala-Ala-Phe-Leu-PyrS2-Phe-BztA-Gln-NH2]
6 |  | 45 (≈ 89.1 µg/mL) |  | 16 | 2.39 | > 20000 |  |  |  |  |  |  | CC(=O)N1CCC[C@]12CC=CCCCC1(CCCC=CCCCOC(=O)N3CC[C@@](C(=O)N[C@@H](Cc4ccccc4)C(=O)N[C@@H](Cc4csc5ccccc45)C(=O)N[C@@H](CCC(N)=O)C(N)=O)(C3)NC(=O)[C@H](CO)NC(=O)[C@H](Cc3cccc(C(F)(F)F)c3)NC(=O)[C@H](C)NC(=O)[C@H](C)NC(=O)[C@H](CC(=O)O)NC(=O)[C@H](CC(=O)O)NC1=O)NC(=O)[C@H](CC1CCCCC1)NC(=O)[C@H](CC(=O)O)NC2=O (stereo partly drawn) [I-1125, Ac-PL3-Asp-Cha-B5-Asp-Asp-Ala-Ala-3F3MeF-Ser-PyrS2-Phe-BztA-Gln-NH2]
7 |  | 37 (≈ 71.5 µg/mL) |  | 5 | 2.4 | 20500 |  |  |  |  |  |  | CC(=O)N1CCC[C@]12CC=CCCCC1(CCCC=CCCCOC(=O)N3CC[C@@](C(=O)N[C@@H](Cc4ccccc4Cl)C(=O)N[C@@H](Cc4csc5ccccc45)C(=O)N[C@@H](CO)C(N)=O)(C3)NC(=O)[C@H](CC(N)=O)NC(=O)[C@H](Cc3ccccc3)NC(=O)[C@H](C)NC(=O)[C@H](C)NC(=O)[C@H](CC(=O)O)NC(=O)[C@H](CC(=O)O)NC1=O)NC(=O)[C@H](CC1CCCCC1)NC(=O)[C@H](CC(=O)O)NC2=O (stereo partly drawn) [I-1046, Ac-PL3-Asp-Cha-B5-Asp-Asp-Ala-Ala-Phe-Asn-PyrS2-2C1F-BztA-Ser-NH2]
8 | > 20000 | 43 (≈ 93.9 µg/mL) |  | 32 | 2.39 |  |  |  |  |  |  |  | CC(=O)N1CCC[C@]12CC=CCCCC1(CCCC=CCCCOC(=O)N3CC[C@@](C(=O)N[C@@H](Cc4ccsc4)C(=O)N[C@@H](Cc4csc5ccccc45)C(=O)N[C@@H](CCC(N)=O)C(N)=O)(C3)NC(=O)[C@H](CC(N)=O)NC(=O)[C@H](Cc3ccccc3)NC(=O)[C@H](CCCCNC(=O)C(C)(c3ccccc3)c3ccccc3)NC(=O)[C@H](C)NC(=O)[C@H](CC(=O)O)NC(=O)[C@H](CC(=O)O)NC1=O)NC(=O)[C@H](CC(C)(C)C)NC(=O)[C@H](CC(=O)O)NC2=O (stereo partly drawn) [I-885, Ac-PL3-Asp-Npg-B5-Asp-Asp-Ala-[22PhPr]Lys-Phe-Asn-PyrS2-3Thi-BztA-Gln-NH2]
9 |  | 47 (≈ 88.9 µg/mL) |  | 10 | 2.23 |  |  |  |  |  | 6800 | 45 | CC(=O)N1CCC[C@]12CC=CCCCC1(CCCC=CCCCOC(=O)N3CC[C@@](C(=O)N[C@@H](Cc4ccsc4)C(=O)N[C@@H](Cc4csc5ccccc45)C(=O)N[C@@H](C(N)=O)[C@H](C)O)(C3)NC(=O)[C@H](CC(N)=O)NC(=O)[C@H](Cc3ccccc3)NC(=O)[C@H](C)NC(=O)[C@H](C)NC(=O)[C@H](CC(=O)O)NC(=O)[C@H](CC(=O)O)NC1=O)NC(=O)[C@H](CC(C)(C)C)NC(=O)[C@H](CC(=O)O)NC2=O (stereo partly drawn) [I-817, Ac-PL3-Asp-Npg-B5-Asp-Asp-Ala-Ala-Phe-Asn-PyrS2-3Thi-BztA-dThr-NH2]
10 | 11400 | 46 (≈ 90.1 µg/mL) |  | 5 | 2.35 |  |  |  |  |  |  |  | CC(=O)N1CCC[C@]12CC=CCCCC1(CCCC=CCCCOC(=O)N3CC[C@@](C(=O)N[C@@H](Cc4ccccc4Cl)C(=O)N[C@@H](Cc4csc5ccccc45)C(=O)N[C@@H](CCC(N)=O)C(N)=O)(C3)NC(=O)[C@H]([C@@H](C)O)NC(=O)[C@H](Cc3ccccc3)NC(=O)[C@H](C)NC(=O)[C@H](C)NC(=O)[C@H](CC(=O)O)NC(=O)[C@H](CC(=O)O)NC1=O)NC(=O)[C@H](CC1CCCCC1)NC(=O)[C@H](CC(=O)O)NC2=O (stereo partly drawn) [I-1042, Ac-PL3-Asp-Cha-B5-Asp-Asp-Ala-Ala-Phe-Thr-PyrS2-2C1F-BztA-Gln-NH2]

— US20240116985A1, “STAPLED PEPTIDES AND METHODS THEREOF” (priority 2020, published 2024)
